In brackets after ≈: the same amount, converted by molar mass. Activity calls are given as the source filed them. No cut-off for these calls is given here.
Columns and labels:
Type in all cases: functional
Bacillus subtilis = experiment: Antimicrobial activity against Bacillus subtilis ATCC 6633 assessed as growth inhibition after 24 hr by NCCLS broth dilution method
Staphylococcus aureus = experiment: Antimicrobial activity against Staphylococcus aureus ATCC 25923 assessed as growth inhibition after 24 hr by NCCLS broth dilution method
Escherichia coli = experiment: Antimicrobial activity against Escherichia coli ATCC 25922 assessed as growth inhibition after 24 hr by NCCLS broth dilution method
Pseudomonas aeruginosa = experiment: Antimicrobial activity against Pseudomonas aeruginosa ATCC 27853 assessed as growth inhibition after 24 hr by NCCLS broth dilution method

Structure (SMILES)	MIC (Bacillus subtilis)	MIC (Bacillus subtilis; ATCC 6633, 24 h)	MIC (Staphylococcus aureus)	MIC (Staphylococcus aureus; ATCC 25923, 24 h)	MIC (Escherichia coli)	MIC (Escherichia coli; ATCC 25922, 24 h)	MIC (Pseudomonas aeruginosa)	MIC (Pseudomonas aeruginosa; ATCC 27853, 24 h)
CN1CCN(c2cc3ncnc(Sc4nnc(-c5cccnc5)o4)c3cc2NC(=O)Nc2ccccc2Cl)CC1	inactive	50 µg/mL (≈ 87.1 µM)	inactive	25 µg/mL (≈ 43.5 µM)	inactive	50 µg/mL (≈ 87.1 µM)	inactive	100 µg/mL (≈ 174 µM)
O=C(Nc1ccc2ncnc(Sc3nnc(-c4cccnc4)o3)c2c1)NC1CCCCC1	inactive	50 µg/mL (≈ 112 µM)	inactive	25 µg/mL (≈ 55.9 µM)	inactive	50 µg/mL (≈ 112 µM)	inactive	100 µg/mL (≈ 223 µM)
O=C(Nc1ccccc1)Nc1ccc2ncnc(Sc3nnc(-c4cccnc4)o3)c2c1	inactive	25 µg/mL (≈ 56.6 µM)	inactive	12.5 µg/mL (≈ 28.3 µM)	inactive	25 µg/mL (≈ 56.6 µM)	inactive	50 µg/mL (≈ 113 µM)
CC1(C)S[C@@H]2[C@H](NC(=O)[C@H](N)c3ccccc3)C(=O)N2[C@H]1C(=O)O.O.O.O [AMPICILLIN TRIHYDRATE]	inactive	0.25 µg/mL	inactive	0.05 µg/mL	inactive	10 µg/mL	inactive	
S=C(Nc1cccc(Cl)c1)Nc1ccc2ncnc(Sc3nnc(-c4cccnc4)o3)c2c1	inactive	25 µg/mL (≈ 50.8 µM)	inactive	6.25 µg/mL (≈ 12.7 µM)	inactive	50 µg/mL (≈ 102 µM)	inactive	75 µg/mL (≈ 152 µM)
CC1COc2c(N3CCN(C)CC3)c(F)cc3c(=O)c(C(=O)O)cn1c23 (configuration not stated) [OFLOXACIN]	inactive	0.125 µg/mL (≈ 0.346 µM)	inactive	0.25 µg/mL (≈ 0.692 µM)	inactive	0.125 µg/mL (≈ 0.346 µM)	inactive	10 µg/mL (≈ 27.7 µM)
CN1CCN(c2cc3ncnc(Sc4nnc(-c5cccnc5)o4)c3cc2NC(=O)NC2CCCCC2)CC1	inactive	12.5 µg/mL (≈ 22.9 µM)	inactive	50 µg/mL (≈ 91.6 µM)	inactive	25 µg/mL (≈ 45.8 µM)	inactive	50 µg/mL (≈ 91.6 µM)
Fc1ccc(NC(=S)Nc2ccc3ncnc(Sc4nnc(-c5cccnc5)o4)c3c2)cc1	inactive	6.25 µg/mL (≈ 13.1 µM)	inactive	6.25 µg/mL (≈ 13.1 µM)	inactive	12.5 µg/mL (≈ 26.3 µM)	inactive	50 µg/mL (≈ 105 µM)
S=C(Nc1ccc(Cl)cc1)Nc1ccc2ncnc(Sc3nnc(-c4cccnc4)o3)c2c1	inactive	12.5 µg/mL (≈ 25.4 µM)	inactive	25 µg/mL (≈ 50.8 µM)	inactive	25 µg/mL (≈ 50.8 µM)	inactive	100 µg/mL (≈ 203 µM)
CN1CCN(c2cc3ncnc(Sc4nnc(-c5cccnc5)o4)c3cc2NC(=O)Nc2ccc(Cl)cc2)CC1	inactive	6.25 µg/mL (≈ 10.9 µM)	inactive	25 µg/mL (≈ 43.5 µM)	inactive	12.5 µg/mL (≈ 21.8 µM)	inactive	50 µg/mL (≈ 87.1 µM)
CN1CCN(c2cc3ncnc(Sc4nnc(-c5cccnc5)o4)c3cc2NC(=S)Nc2cccc(Cl)c2)CC1	inactive	25 µg/mL (≈ 42.4 µM)	inactive	6.25 µg/mL (≈ 10.6 µM)	inactive	12.5 µg/mL (≈ 21.2 µM)	inactive	50 µg/mL (≈ 84.7 µM)
Cc1ccc(NC(=S)Nc2ccc3ncnc(Sc4nnc(-c5cccnc5)o4)c3c2)cc1	inactive	25 µg/mL (≈ 53 µM)	inactive	25 µg/mL (≈ 53 µM)	inactive	50 µg/mL (≈ 106 µM)	inactive	75 µg/mL (≈ 159 µM)
O=C(Nc1ccc(Cl)cc1)Nc1ccc2ncnc(Sc3nnc(-c4cccnc4)o3)c2c1	inactive	12.5 µg/mL (≈ 26.3 µM)	inactive	6.25 µg/mL (≈ 13.1 µM)	inactive	75 µg/mL (≈ 158 µM)	inactive	25 µg/mL (≈ 52.5 µM)
Cc1cccc(NC(=O)Nc2cc3c(Sc4nnc(-c5cccnc5)o4)ncnc3cc2N2CCN(C)CC2)c1	inactive	25 µg/mL (≈ 45.2 µM)	inactive	50 µg/mL (≈ 90.3 µM)	inactive	25 µg/mL (≈ 45.2 µM)	inactive	50 µg/mL (≈ 90.3 µM)
Cc1ccccc1NC(=S)Nc1cc2c(Sc3nnc(-c4cccnc4)o3)ncnc2cc1N1CCN(C)CC1	inactive	75 µg/mL (≈ 132 µM)	inactive	50 µg/mL (≈ 87.8 µM)	inactive	100 µg/mL (≈ 176 µM)	inactive	25 µg/mL (≈ 43.9 µM)
Cc1ccc(NC(=S)Nc2cc3c(Sc4nnc(-c5cccnc5)o4)ncnc3cc2N2CCN(C)CC2)cc1	inactive	50 µg/mL (≈ 87.8 µM)	inactive	12.5 µg/mL (≈ 21.9 µM)	inactive	50 µg/mL (≈ 87.8 µM)	inactive	50 µg/mL (≈ 87.8 µM)
